As a reminder, the IC50 is the concentration that gives 50% inhibition.

Test [1] is described as follows: Inhibition of c-Met in human MKN45 cells assessed as reduction in cell proliferation after 72 hrs by SRB or MTT assay. On the technique in general: Formazan colour is commonly taken as a measure of viable cells.
Test [2] in a line: Inhibition of c-Met in human EBC-1 cells assessed as reduction in cell proliferation after 72 hrs by SRB or MTT assay.
The nature of test [3]: Inhibition of TPR-MET in mouse BAF3 cells assessed as reduction in cell proliferation after 72 hrs by SRB or MTT assay.

As to `Fc1ccc(-c2cnc3nnc(C(F)(F)c4ccc5ncccc5c4)n3n2)cc1`, the IC50 in test [1] is 0.46 nM; in test [2], 0.85 nM.

For `Cn1cc(-c2ccc3nnc(C(F)(F)c4ccc5ncccc5c4)n3n2)cn1` [US9062045, Comparator No. 1 (JNJ-38877605)], the figures for the IC50 in test [3], in test [1] and in test [2] were 8.6 nM, 9.5 nM and 5.5 nM, respectively.

The record behind these values is BindingDB's records for doi:10.1016/j.ejmech.2016.03.076 (Chinese Academy of Sciences (Cas), 2016).
